{"source": "patent US20070178436A1", "about": "“Method of inactivating virus in circular blood and its applications in treating viral diseases” (Beijing Jingjing Medical Equipment CO., Ltd., priority 2003, published 2007)", "key": {"[1]": {"tested_on": "clotting factors of plasma", "assay": "Clotting factors before and after processing, automated coagulation analyzer", "conditions": "60 minutes of circulatory processing"}, "[2]": {"assay": "Impact on the content of Inorganic Salt (automatic biochemical analyzer)", "conditions": "60 minutes of circulatory processing"}, "[3]": {"tested_on": "clotting factor VIII", "assay": "Impact on the activity of clotting factor VIII (detection kit)", "conditions": "60-minute circulatory processing"}, "[4]": {"tested_on": "Sindbis", "format": "cell-based, Sindbis virus"}, "[5]": {"tested_on": "VSV", "format": "cell-based, vesicular stomatitis virus", "conditions": "for residual virus VSV: 1500 ml plasma, bag with three pressed folded lines"}, "[6]": {"tested_on": "VSV (vesicular stomatitis virus)", "format": "cell-based"}, "[7]": {"assay": "Impact on the pH value of whole blood", "format": "physicochemical", "conditions": "for pH value in whole blood: 60 minutes of circulatory processing"}, "[8]": {"tested_on": "clotting factor IX", "assay": "Impact on the activity of clotting factor IX (detection kit)", "conditions": "for Activity of factor IX (%): 60 minutes of circulatory processing"}, "[9]": {"assay": "Impact on the content of the plasma protein (automatic biochemical analyzer)", "conditions": "60 minutes of circulatory processing"}, "[10]": {"tested_on": "Sindbis virus (SV)", "format": "cell-based"}, "[11]": {"tested_on": "complement C3", "assay": "Impact on the content of complement C3 (single-diffusion plate)", "conditions": "60 minutes of circulatory processing"}}, "note": "Like-named read-outs stand apart in the source and are kept apart here."}
{"smiles": "CN(C)c1ccc2nc3ccc(=[N+](C)C)cc-3sc2c1", "note": "[methylene blue]", "values": [{"measurement": "APTT clotting time", "setting": "[1]", "result": "74.0 ″"}, {"measurement": "Clotting factor II clotting time", "setting": "[1]", "result": "25.0 ″"}, {"measurement": "Clotting factor IX clotting time", "setting": "[1]", "result": "66.7 ″"}, {"measurement": "Clotting factor V clotting time", "setting": "[1]", "result": "31.8 ″"}, {"measurement": "Clotting factor VII clotting time", "setting": "[1]", "result": "26.8 ″"}, {"measurement": "Clotting factor VIII clotting time", "setting": "[1]", "result": "83.6 ″"}, {"measurement": "Clotting factor X clotting time", "setting": "[1]", "result": "32.6 ″"}, {"measurement": "Clotting factor XI clotting time", "setting": "[1]", "result": "82.6 ″"}, {"measurement": "Clotting factor XII clotting time", "setting": "[1]", "result": "70.2 ″"}, {"measurement": "PT clotting time", "setting": "[1]", "result": "19.6 ″"}, {"measurement": "APTT (reduced)", "setting": "[1]; versus control plasma", "result": 17.5, "unit": "%"}, {"measurement": "Clotting factor II (reduced)", "setting": "[1]; versus control plasma", "result": 1.6, "unit": "%"}, {"measurement": "Clotting factor IX (reduced)", "setting": "[1]; versus control plasma", "result": 4.9, "unit": "%"}, {"measurement": "Clotting factor V (reduced)", "setting": "[1]; versus control plasma", "result": 8.9, "unit": "%"}, {"measurement": "Clotting factor VII (reduced)", "setting": "[1]; versus control plasma", "result": 7.2, "unit": "%"}, {"measurement": "Clotting factor VIII (reduced)", "setting": "[1]; versus control plasma", "result": 7.2, "unit": "%"}, {"measurement": "Clotting factor XI (reduced)", "setting": "[1]; versus control plasma", "result": 6.7, "unit": "%"}, {"measurement": "Clotting factor XII (reduced)", "setting": "[1]; versus control plasma", "result": 3.7, "unit": "%"}, {"measurement": "PT (reduced)", "setting": "[1]; versus control plasma", "result": 31.5, "unit": "%"}, {"measurement": "Ca content", "setting": "[2]", "result": 1.57, "unit": "mM/l"}, {"measurement": "Cho content", "setting": "[2]", "result": 3.82, "unit": "mM/l"}, {"measurement": "Cl content", "setting": "[2]", "result": 58.7, "unit": "mM/l"}, {"measurement": "K content", "setting": "[2]", "result": 3.22, "unit": "mM/l"}, {"measurement": "Mg content", "setting": "[2]", "result": 0.67, "unit": "mM/l"}, {"measurement": "Na content", "setting": "[2]", "result": 135.1, "unit": "mM/l"}, {"measurement": "P content", "setting": "[2]", "result": 1.19, "unit": "mM/l"}, {"measurement": "range of decrease of the activity of clotting factor VIII", "setting": "[3]", "result": "less than 20%"}, {"measurement": "Sindbis virus illuminated (titer reduction)", "setting": "[4]", "result": "more than 5 LgTCID50"}, {"measurement": "reduction of virus titer Sindbis", "setting": "[4]", "result": "over 5.0 Lg TCID50"}, {"measurement": "virus liter left Sindbis", "setting": "[4]", "result": "≦−0.5 Lg TCID50"}, {"measurement": "residual virus VSV", "setting": "[5]; Illumination time 1 h, 50 ml/min", "result": 2.63, "unit": "Lg TCID50"}, {"measurement": "residual virus VSV", "setting": "[5]; Illumination time 2 h, 50 ml/min", "result": "−0.13", "unit": "Lg TCID50"}, {"measurement": "residual virus VSV", "setting": "[5]; Illumination time 4 h, 50 ml/min", "result": "≦−0.50 Lg TCID50"}, {"measurement": "reduction of virus titer VSV", "setting": "[5]; Simulation 1, 1500 ml plasma, 50 ml/min", "result": "over 5.0 Lg TCID50"}, {"measurement": "virus liter left VSV", "setting": "[5]; illumination path 2.0 m, illumination time 26.0 sec, 50 ml/min", "result": "≦−0.5 Lg TCID50"}, {"measurement": "VSV illuminated (titer reduction)", "setting": "[5]; illumination path 2 meter, 26 seconds, 50 ml/min", "result": "more than 5 LgTCID50"}, {"measurement": "virus liter left VSV", "setting": "[5]; illumination path 2.5 m, illumination time 32.5 sec, 50 ml/min", "result": "≦−0.5 Lg TCID50"}, {"measurement": "virus liter left VSV", "setting": "[5]; illumination path 3.0 m, illumination time 39.0 sec, 50 ml/min", "result": "≦−0.5 Lg TCID50"}, {"measurement": "virus liter left VSV", "setting": "[5]; illumination path 3.5 m, illumination time 45.5 sec, 50 ml/min", "result": "≦−0.5 Lg TCID50"}, {"measurement": "virus liter left VSV", "setting": "[5]; illumination path 4.0 m, illumination time 52.0 sec, 50 ml/min", "result": "≦−0.5 Lg TCID50"}, {"measurement": "virus titer left (VSV)", "setting": "[5]; standard 15 cm bag with five pressed folded lines, plasma flowing speed 50", "result": "≦−0.50 Lg TCID50"}, {"measurement": "virus titer left (VSV)", "setting": "[5]; standard 15 cm bag with five pressed folded lines, plasma flowing speed 80", "result": 0.13, "unit": "Lg TCID50"}, {"measurement": "virus titer left (VSV)", "setting": "[5]; standard 15 cm bag with three pressed folded lines, plasma flowing speed 50", "result": "−0.25", "unit": "Lg TCID50"}, {"measurement": "virus titer left (VSV)", "setting": "[5]; standard 15 cm bag with three pressed folded lines, plasma flowing speed 80", "result": 1.50, "unit": "Lg TCID50"}, {"measurement": "virus titer left (VSV)", "setting": "[5]; standard 15 cm cut-through plasma bag, plasma flowing speed 50", "result": 4.25, "unit": "Lg TCID50"}, {"measurement": "virus titer left (VSV)", "setting": "[5]; standard 15 cm cut-through plasma bag, plasma flowing speed 80", "result": 5.13, "unit": "Lg TCID50"}, {"measurement": "virus titer left (VSV)", "setting": "[6]; Volume of blood 1000 ml, circulatory time 60 mins", "result": "≦−0.5 lg TCID50"}, {"measurement": "virus titer left (VSV)", "setting": "[6]; Volume of blood 2000 ml, circulatory time 120 mins", "result": "≦−0.5 lg TCID50"}, {"measurement": "pH value in whole blood", "setting": "[7]; batch I", "result": 7.35}, {"measurement": "pH value in whole blood", "setting": "[7]; batch II", "result": 7.38}, {"measurement": "pH value in whole blood", "setting": "[7]; batch III", "result": 7.36}, {"measurement": "change on the pH value of the whole blood", "setting": "[7]; processing method of the invention", "result": "does not cause any change on the pH value"}, {"measurement": "range of decrease of the activity of clotting factor IX", "setting": "[8]; 60-minute circulatory processing", "result": "about 10%"}, {"measurement": "Activity of factor IX (%)", "setting": "[8]; batch I", "result": 106.1, "unit": "%"}, {"measurement": "Activity of factor IX (%)", "setting": "[8]; batch II", "result": 125.2, "unit": "%"}, {"measurement": "Activity of factor IX (%)", "setting": "[8]; batch III", "result": 89.4, "unit": "%"}, {"measurement": "Albumin content", "setting": "[9]", "result": 36.1, "unit": "g/L"}, {"measurement": "Glucose content", "setting": "[9]", "result": 21.2, "unit": "mM/l"}, {"measurement": "Total protein content", "setting": "[9]", "result": 58.8, "unit": "g/L"}, {"measurement": "triglyceride content", "setting": "[9]", "result": 1.62, "unit": "mM/l"}, {"measurement": "virus titer left Sindbis", "setting": "[10]", "result": "≦−0.05 lg TCID50"}, {"measurement": "reduction of the content of the complement C3 compared to a reference", "setting": "[11]", "result": "about 5%"}, {"measurement": "content of the complement C3", "setting": "[11]; batch I", "result": 5.64, "unit": "mg/mL"}, {"measurement": "content of the complement C3", "setting": "[11]; batch II", "result": 5.43, "unit": "mg/mL"}, {"measurement": "content of the complement C3", "setting": "[11]; batch III", "result": 5.61, "unit": "mg/mL"}]}
